The values below come from patent US11203597B2, “Crystalline spirocyclic compound, a dosage form containing, a method for using in treatment of disease, and a method for recrystallizing” (Altavant Sciences GmbH, priority 2018, dated 2021).

In general, solubility refers to how much of the substance goes into solution per volume.

The structures appear in SMILES notation. Converted amounts (≈) assume the structure as drawn.

A short description of series [1]: Solubility of Compound 1, Form 3 in MTBE/n-heptane mixtures. Type of series: physicochemical. The conditions noted are these: organic solvent or mixture, thermodynamic from solid. Here is the method:
Solubility of Compound 1, Form 3
The solubility of Compound 1 was evaluated in mixtures of MTBE/n-heptane mixtures at 10° C. and 45° C. The form of the residual solids was examined by XRPD.

Series [2] can be described thus: Shake-flask solubility determination with stepwise addition of solvent. Type of series: physicochemical. From the text: The method applied was a shake-flask solubility determination with stepwise addition of the solvent until complete dissolution is observed visually.
A short description of series [3]: Solubility determination by HPLC. The series is classed as physicochemical. The settings on record: ethanol. From the text:
Because of the small differences in solubilities, HPLC was used to measure the solubilities. The values were conformed to the shake-flask results. […] In alcohol, there was a difference in dissolution rate. This difference was not observed for aqueous solutions.

Series [4] is described as follows: Thermodynamic stability of polymorphs. The series is classed as physicochemical. The conditions noted are these: particularly at temperatures of less than 95° C., more particularly less than 80° C.
Series [5] addresses T1, TPH1 (Mus musculus, UniProt P17532).
T1 construct: host or cells: mice (in vivo)
T1 sequence (P17532 1-447): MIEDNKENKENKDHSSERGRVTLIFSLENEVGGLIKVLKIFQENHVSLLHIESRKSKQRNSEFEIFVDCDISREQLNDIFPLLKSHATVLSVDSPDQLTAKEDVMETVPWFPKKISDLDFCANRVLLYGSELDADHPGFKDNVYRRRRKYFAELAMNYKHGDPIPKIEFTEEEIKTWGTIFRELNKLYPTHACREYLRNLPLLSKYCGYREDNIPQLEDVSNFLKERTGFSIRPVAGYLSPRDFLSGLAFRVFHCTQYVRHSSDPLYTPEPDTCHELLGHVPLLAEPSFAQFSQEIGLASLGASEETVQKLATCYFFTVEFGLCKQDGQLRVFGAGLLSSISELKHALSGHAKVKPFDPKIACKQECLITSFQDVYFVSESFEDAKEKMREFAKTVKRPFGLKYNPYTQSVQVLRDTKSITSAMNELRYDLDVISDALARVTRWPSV
The settings on record: U.S. Pat. No. 9,199,994, Example 63i and Table 27; cited from earlier work.

With `CCOC(=O)[C@@H]1CC2(CCN(c3cc(O[C@H](c4ccc(Cl)cc4-c4ccccc4)C(F)(F)F)nc(N)n3)CC2)CN1` [Form 3, (S)-ethyl 8-(2-amino-6-((R)-1-(5-chloro-[1,1′-biphenyl]-2-yl)-2,2,2-trifluoroethoxy)pyrimidin-4-yl)-2,8-diazaspiro[4.5]decane-3-carboxylate], the solubility in series [1] (MTBE/n-heptane 1/0, 45 °C) was more than 500 mg/mL; in series [1] (MTBE/n-heptane 1/1, 10 °C), 27.2 mg/mL (≈ 46.1 mM); in series [1] (MTBE/n-heptane 1/1, 45 °C), 89.4 mg/mL (≈ 152 mM); in series [1] (MTBE/n-heptane 1/2, 10 °C) it was 17.5 mg/mL (≈ 29.7 mM); in series [1] (MTBE/n-heptane 1/4, 10 °C), 6.2 mg/mL (≈ 10.5 mM); in series [1] (MTBE/n-heptane 1/5, 45 °C) it was 4.2 mg/mL (≈ 7.12 mM). The solubility in series [2] (2-methyl-tetrahydrofuran) was 106 to 1060 mg/mL; in series [2] (2-propanol), less than 10.1 mg/mL; in series [2] (I-propanol), 35 to 104 mg/mL; in series [2] (N,N-dimethyl-acetamide), 108 to 1080 mg/mL; in series [2] (acetic acid) it was 104 to 1040 mg/mL; in series [2] (acetone) it was 108 to 1080 mg/mL. In addition, the solubility in series [2] (acetonitrile) lay in the range of 99 to 990 mg/mL; in series [2] (dimethyl sulfoxide) it was 109 to 1090 mg/mL; in series [2] (ethanol), 33 to 100 mg/mL; in series [2] (ethyl acetate), 95 to 950 mg/mL; in series [2] (formic acid 99%), 96 to 960 mg/mL; in series [2] (isopropyl acetate) it was 94 to 940 mg/mL. Also, the solubility was 102 to 1020 mg/mL in series [2] (methanol); 100 to 1000 mg/mL in series [2] (methyl isobutyl); 106 to 1060 mg/mL in series [2] (methyl tert-butyl ether); less than 9.9 mg/mL in series [2] (n-heptane); 99 to 990 mg/mL in series [2] (tetrahydrofuran); 105 to 1050 mg/mL in series [2] (toluene). In series [2] (water), this compound returned a solubility of less than 10.0 mg/mL. The “dissolution of remaining slurry in time” value in series [3] was “dissolved completely”. Besides, the “thermodynamic stability compared to crystalline Form 1” value in series [4] was “substantially greater thermodynamic stability”.
Turning to `CCOC(=O)[C@@H]1CC2(CCN(c3cc(O[C@H](c4ccc(Cl)cc4-c4ccccc4)C(F)(F)F)nc(N)n3)CC2)CN1` [(S)-ethyl 8-(2-amino-6-((R)-1-(5-chloro-[1,1′-biphenyl]-2-yl)-2,2,2-trifluoroethoxy)pyrimidin-4-yl)-2,8-diazaspiro[4.5]decane-3-carboxylate], the “efficacy in inhibiting TPH1 in mice” value in series [5] is listed as “demonstrated”.
